Source: ChEMBL document CHEMBL1201862, “PubChem BioAssay data set” (2004)
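Exposure lasted 48 hours, with cells grown in 96-well plates and compounds tested at five concentrations. GI50 is the concentration that inhibits growth by half.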 The source made the active and inactive calls. No stated cut-off is given here; in the data, active = GI50 up to about 1.1 µM and inactive = higher.

Tests used:
Experiment in all cases: NCI tumour cell line growth inhibition, 48 h
SW-620 = test system: SW-620
OVCAR-5 = test system: OVCAR-5
786-0 = test system: 786-0
HOP-92 = test system: HOP-92
SK-MEL-2 = test system: SK-MEL-2
HL-60 = test system: HL-60
TK-10 = test system: TK-10
SNB-19 = test system: SNB-19
MDA-N = test system: MDA-N
SF-539 = test system: SF-539
NCI-H226 = test system: NCI-H226
LOX IMVI = test system: LOX IMVI
SNB-75 = test system: SNB-75
OVCAR-4 = test system: OVCAR-4
ACHN = test system: ACHN
BT-549 = test system: BT-549
K562 = test system: K562
MOLT-4 = test system: MOLT-4
DU-145 = test system: DU-145
RPMI-8226 = test system: RPMI-8226
MDA-MB-435 = test system: MDA-MB-435
UO-31 = test system: UO-31
NCI-H460 = test system: NCI-H460
EKVX = test system: EKVX
HCT-116 = test system: HCT-116
CAKI-1 = test system: CAKI-1
CCRF-CEM = test system: CCRF-CEM
COLO 205 = test system: COLO 205
HOP-62 = test system: HOP-62
NCI-H23 = test system: NCI-H23
SR = test system: SR
UACC-257 = test system: UACC-257
A549 = test system: A549
Malme-3M = test system: Malme-3M
NCI-H522 = test system: NCI-H522
SK-MEL-28 = test system: SK-MEL-28
RXF 393 = test system: RXF 393
T47D = test system: T47D
IGROV-1 = test system: IGROV-1
OVCAR-8 = test system: OVCAR-8
MCF7 = test system: MCF7
UACC-62 = test system: UACC-62
PC-3 = test system: PC-3
HT-29 = test system: HT-29
SF-268 = test system: SF-268
Hs-578T = test system: Hs-578T
SK-MEL-5 = test system: SK-MEL-5
HCT-15 = test system: HCT-15
SN12C = test system: SN12C
HCC 2998 = test system: HCC 2998
MDA-MB-231 = test system: MDA-MB-231
U-251 = test system: U-251
KM12 = test system: KM12
OVCAR-3 = test system: OVCAR-3
NCI/ADR-RES = test system: NCI/ADR-RES
SK-OV-3 = test system: SK-OV-3
SF-295 = test system: SF-295
M14 = test system: M14
A498 = test system: A498

O=c1c2ccccc2nc2n1NC(c1c(Cl)cccc1Cl)N2c1cccc(Cl)c1 (centres undefined)
GI50 (SW-620): 3.32 µM (inactive) | GI50 (OVCAR-5): 4.54 µM (inactive) | GI50 (786-0): 2.1 µM (inactive) | GI50 (HOP-92): 4.52 µM (inactive) | GI50 (SK-MEL-2): 39.1 µM (inactive) | GI50 (HL-60): > 100 µM (inactive) | GI50 (TK-10): 7.69 µM (inactive) | GI50 (SNB-19): 4.43 µM (inactive) | GI50 (MDA-N): 5.22 µM (inactive) | GI50 (SF-539): 11.5 µM (inactive) | GI50 (NCI-H226): 2.56 µM (inactive) | GI50 (LOX IMVI): 6.79 µM (inactive) | GI50 (SNB-75): 2.64 µM (inactive) | GI50 (OVCAR-4): 2.65 µM (inactive) | GI50 (ACHN): 3.1 µM (inactive) | GI50 (BT-549): 51.4 µM (inactive) | GI50 (K562): 54.2 µM (inactive) | GI50 (MOLT-4): > 100 µM (inactive) | GI50 (DU-145): 11.4 µM (inactive) | GI50 (RPMI-8226): 4.69 µM (inactive) | GI50 (MDA-MB-435): 9.35 µM (inactive) | GI50 (UO-31): 2.38 µM (inactive) | GI50 (NCI-H460): 5.13 µM (inactive) | GI50 (EKVX): 6.43 µM (inactive) | GI50 (HCT-116): 3.27 µM (inactive) | GI50 (CAKI-1): 10.8 µM (inactive) | GI50 (CCRF-CEM): > 100 µM (inactive) | GI50 (COLO 205): 8.53 µM (inactive) | GI50 (HOP-62): 8.38 µM (inactive) | GI50 (NCI-H23): 14.6 µM (inactive) | GI50 (SR): 8.55 µM (inactive) | GI50 (UACC-257): 25.2 µM (inactive) | GI50 (A549): 5.2 µM (inactive) | GI50 (Malme-3M): 8.99 µM (inactive) | GI50 (NCI-H522): 10.4 µM (inactive) | GI50 (SK-MEL-28): 12.7 µM (inactive) | GI50 (RXF 393): 4.78 µM (inactive) | GI50 (T47D): 5.56 µM (inactive) | GI50 (IGROV-1): 3.34 µM (inactive) | GI50 (OVCAR-8): 3.26 µM (inactive) | GI50 (MCF7): 1.69 µM (inactive) | GI50 (UACC-62): 5.86 µM (inactive) | GI50 (PC-3): 5.11 µM (inactive) | GI50 (HT-29): 6.73 µM (inactive) | GI50 (SF-268): 11.9 µM (inactive) | GI50 (Hs-578T): 7.55 µM (inactive) | GI50 (SK-MEL-5): 16.6 µM (inactive) | GI50 (HCT-15): 30.3 µM | GI50 (SN12C): 4.71 µM (inactive) | GI50 (HCC 2998): 4.42 µM (inactive) | GI50 (MDA-MB-231): 2.79 µM (inactive) | GI50 (U-251): 2.14 µM (inactive) | GI50 (KM12): 7.24 µM (inactive) | GI50 (OVCAR-3): 10.6 µM (inactive) | GI50 (NCI/ADR-RES): 6.44 µM (inactive) | GI50 (SK-OV-3): 2.26 µM (inactive) | GI50 (SF-295): 9.33 µM (inactive) | GI50 (M14): 7.24 µM (inactive)

CO/C=C/C=C(\C#N)C(=O)OC
GI50 (SW-620): > 100 µM (inactive) | GI50 (OVCAR-5): > 100 µM (inactive) | GI50 (786-0): > 100 µM (inactive) | GI50 (HOP-92): > 100 µM (inactive) | GI50 (SK-MEL-2): > 100 µM (inactive) | GI50 (TK-10): > 100 µM (inactive) | GI50 (SNB-19): > 100 µM (inactive) | GI50 (MDA-N): > 100 µM (inactive) | GI50 (SF-539): > 100 µM (inactive) | GI50 (NCI-H226): > 100 µM (inactive) | GI50 (LOX IMVI): > 100 µM (inactive) | GI50 (SNB-75): 60.3 µM (inactive) | GI50 (OVCAR-4): > 100 µM (inactive) | GI50 (ACHN): > 100 µM (inactive) | GI50 (BT-549): > 100 µM (inactive) | GI50 (K562): > 100 µM (inactive) | GI50 (MOLT-4): 16.9 µM (inactive) | GI50 (DU-145): > 100 µM (inactive) | GI50 (RPMI-8226): > 100 µM (inactive) | GI50 (MDA-MB-435): > 100 µM (inactive) | GI50 (UO-31): > 100 µM (inactive) | GI50 (NCI-H460): > 100 µM (inactive) | GI50 (EKVX): > 100 µM (inactive) | GI50 (HCT-116): > 100 µM (inactive) | GI50 (CAKI-1): > 100 µM (inactive) | GI50 (CCRF-CEM): 26.3 µM (inactive) | GI50 (COLO 205): > 100 µM (inactive) | GI50 (HOP-62): > 100 µM (inactive) | GI50 (NCI-H23): > 100 µM (inactive) | GI50 (SR): > 100 µM (inactive) | GI50 (UACC-257): > 100 µM (inactive) | GI50 (A549): > 100 µM (inactive) | GI50 (Malme-3M): > 100 µM (inactive) | GI50 (NCI-H522): > 100 µM (inactive) | GI50 (SK-MEL-28): > 100 µM (inactive) | GI50 (T47D): > 100 µM (inactive) | GI50 (IGROV-1): > 100 µM (inactive) | GI50 (OVCAR-8): > 100 µM (inactive) | GI50 (MCF7): > 100 µM (inactive) | GI50 (UACC-62): > 100 µM (inactive) | GI50 (PC-3): > 100 µM (inactive) | GI50 (HT-29): > 100 µM (inactive) | GI50 (SF-268): > 100 µM (inactive) | GI50 (Hs-578T): > 100 µM (inactive) | GI50 (SK-MEL-5): > 100 µM (inactive) | GI50 (HCT-15): > 100 µM | GI50 (SN12C): > 100 µM (inactive) | GI50 (A498): > 100 µM (inactive) | GI50 (HCC 2998): > 100 µM (inactive) | GI50 (MDA-MB-231): > 100 µM (inactive) | GI50 (U-251): > 100 µM (inactive) | GI50 (KM12): > 100 µM (inactive) | GI50 (OVCAR-3): > 100 µM (inactive) | GI50 (NCI/ADR-RES): > 100 µM (inactive) | GI50 (SK-OV-3): > 100 µM (inactive) | GI50 (SF-295): > 100 µM (inactive)
